In US9622479B2, “Boron complexes with gradual 1-methylcyclopropene releasing capability” (The United States of America, as represented by the …, priority 2014, dated 2017):

Legend:
[1] = GC head space analysis of 1-MCP release from boron complexes mixed with water; type: physicochemical; conditions: for amount of 1-MCP released in first 24 hours (releasing curves): FIGS. 4 & 7; for consistency in releasing 1-MCP over time: FIGS. 4-7, compared with complex 2; for release of 1-MCP with time (MCP releasing curve): complex mixed vigorously with H2O in air-tight vial, head space vapor injected in GC
Protocol: Investigation of releasing 1-MCP from the boron complexes of MCP (1, 2, 3,4): Without being bound by theory, due to the moisture sensitivity of the boron complexes, the nucleophilic attack of hydroxide ion (OH—) toward the boron atom triggered the breaking of the B-C bond releasing 1-MCP as a gas.
(§1) GC analysis of dicyclohexyl-(2-methylene-cyclopropyl)-borane (1): 140 mg of the complex was mixed vigorously with 0.6 mL of H2O in a 1.5 mL air-tight vial. The vapor collected (8 μl) from the head space of the solution was injected in a GC with an MXTR-1 column. The data were compared with a reference standard of 1-MCP.
as §1, with “dihexyl-(2-methylene-cyclopropyl)-borane (2): 291” for “dicyclohexyl-(2-methylene-cyclopropyl)-borane (1): 140”, “1.0” for “0.6”, “3” for “1.5”, “(100 μL)” for “(8 μl)”
as §1, with “tris-(2-methylene-cyclopropyl)-borane (3): 94” for “dicyclohexyl-(2-methylene-cyclopropyl)-borane (1): 140”, “0.4” for “0.6”, “μL)” for “μl)”
GC analysis of diphenyl-(2-methylene-cyclopropyl)-borane (4): 393 mg of the complex was mixed vigorously with 2.0 mL of H2O in a 3 mL air-tight vial. The vapor collected from the head space of the solution was injected in a Hewlett-Packard 5890 GC with capillary column (30 m×0.25 mm i.d.) coated with a 0.25 μm film of 5% phenyl methyl silicon and a flame ionization detector. The temperature of GC was programmed at 30° C. isothermal with an injection point temperature of 50° C. The detector was operated at 230° C. and sample was injected under split less condition. Helium was used as carrier gas with a 1.5 mL/min column flow.
However, during this analysis it was observed that some other compounds were also released. Those compounds formed due to the breakage of other B-C bonds were cyclohexane and cyclohexanol from complex 1 or hexane and hexanol from complex 2. Complex 3 also released some byproducts either by incomplete hydrolysis of the complex or Markovnikov addition of H2O.

green tomatoes = assay: Green tomatoes treated with 1-MCP released from Boron complex 1 and water; color and firmness quality analysis; type: in vivo
Protocol: Boron complex 1 was tested on green tomatoes. Six 3.9 L air tight glass jars were taken for investigation containing five green tomatoes each. The tomatoes in three jars were treated with 1-MCP released from the reaction between Boron complex 1 and water in a 14 mL vial with continuous stirring, which was placed inside the jars. The other jars were kept in identical condition without placing any boron complex inside. The treatment was carried out for 24 hours. The concentration level of 1-MCP was determined (9 to 13 μLL^-1) after 24 hours of reaction by GC analysis using 2-methyl-1-propene as a standard. After 24 hours treatment all the tomatoes were kept in open environment and monitored for their color changes. Quality Analysis: Noninoculated tomatoes were treated with Boron complex 1 as described before and kept in open air for 9 days. Quality analysis (color and firmness) was performed at 22±2° C. Color was measured with a Hunter UltraScan® VIS colorimeter (Hunter Associates Lab, Reston, Va.) and firmness was evaluated with a TA-XT2i Texture Analyzer (Texture Technologies Corp., Scarsdale, N.Y.). Four measurements were taken for each tomato for color and firmness. The color of the tomatoes was measured seven times during the investigation period and firmness was determined at the end of 9th day.

tomatoes = assay: Comparative quality analysis of tomatoes treated with DCMB (1) and DPMB (4); type: in vivo; conditions: for darkness (L*) of tomatoes during storage / redness (a*/b*) of tomatoes during storage: 7 days storage at 22±2° C.; for darkness (L*) of tomatoes during storage: FIG. 14; for redness (a*/b*) of tomatoes during storage: FIG. 15; for average firmness of tomatoes: day 7, storage at 22±2° C., FIG. 16
Protocol: (§2) For the comparative studies between DCMB (1) and DPMB (4), experiment was performed with three 1-gal airtight jars containing eight tomatoes each which were collected from the same source but different time. One jar was used as blank containing no complex and the other two jars Were treated with equivalent amount of DCMB (1) (393 mg) and DPMB (4) (376.5 mg) complex respectively arid water (2 mL), The concentration of released 1-MCP inside the jars was calculated by GC analysis after 24 hour treatment The treated and untreated tomatoes were subjected to quality analysis under identical conditions.
Quality Analysis: Noninoculated tomatoes were treated with Boron complex 1 as described before and kept in open air for 9 days. Quality analysis (color and firmness) was performed at 22±2° C. Color was measured with a Hunter UltraScan® VIS colorimeter (Hunter Associates Lab, Reston, Va.) and firmness was evaluated with a TA-XT2i Texture Analyzer (Texture Technologies Corp., Scarsdale, N.Y.). Four measurements were taken for each tomato for color and firmness. The color of the tomatoes was measured seven times during the investigation period and firmness was determined at the end of 9th day.
Similar results were found in a*/b* value (FIG. 15). […] The firmness data of the treated tomatoes was compared to that of non-treated tomatoes at Day 7 (NT-7D, Exp 2) and also at Day 0 (NT-OD, Exp 2), which were collected from the same batch. […] However, a significant difference was observed between the non-treated tomatoes at day 7 (2.68 kg) and non-treated fruits at day 0.

[2] = 1-MCP concentration inside the jars by GC analysis after 24 hour treatment; type: physicochemical; conditions: 1-gal airtight jars, equivalent amount of complex, 2 mL water
Protocol: Boron complex 1 was tested on green tomatoes. Six 3.9 L air tight glass jars were taken for investigation containing five green tomatoes each. The tomatoes in three jars were treated with 1-MCP released from the reaction between Boron complex 1 and water in a 14 mL vial with continuous stirring, which was placed inside the jars. The other jars were kept in identical condition without placing any boron complex inside. The treatment was carried out for 24 hours. The concentration level of 1-MCP was determined (9 to 13 μLL^-1) after 24 hours of reaction by GC analysis using 2-methyl-1-propene as a standard. After 24 hours treatment all the tomatoes were kept in open environment and monitored for their color changes.
as §2

Row | area ratio of released 1-MCP over cyclohexane vs. temperature ([1]; GC experiment at different temperatures, FIG. 8) | release of 1-MCP with time (MCP releasing curve) [1] | concentration of 1-MCP [2] [μLL-1] | SMILES | amount of 1-MCP released in first 24 hours (releasing curves) [1] | consistency in releasing 1-MCP over time [1] | tomato color at the end of nine days (green tomatoes; 24 hours treatment, then open environment, all untreated turned red) | tomato color after 4 days (green tomatoes; 24 hours treatment, then open environment, untreated turned yellow) | darkness (L*) of tomatoes during storage (green tomatoes; 9 days storage at 22±2° C., FIG. 10) | redness (a*/b*) of tomatoes during storage (green tomatoes; 9 days storage at 22±2° C., FIG. 11) | firmness of tomatoes (green tomatoes; end of 9th day, storage at 22±2° C., FIG. 12) | foreign spots on the surface of the treated tomatoes (green tomatoes; in vivo) | darkness (L*) of tomatoes during storage (tomatoes) | redness (a*/b*) of tomatoes during storage (tomatoes) | average firmness of tomatoes (tomatoes) [kg]
1 | increased at lower temperature | released gradually with time | 5 | C=C1CC1B(C1CCCCC1)C1CCCCC1 (centres unmarked) [complex 1, dicyclohexyl-(2-methylene-cyclopropyl)-borane] | near to its highest point in first 24 hours | more consistent in releasing 1-MCP over time | half of the treated tomatoes were still green | remained green | did not significantly change | increased slowly but not in significant value | 1.42 (±0.35) kg | No foreign spots were observed | did not significantly change | did not change significantly or increased very slowly | 4.20
2 | – | released gradually with time | – | C=C1CC1B(CCCCCC)CCCCCC (centres unmarked) [complex 2, dihexyl-(2-methylene-cyclopropyl)-borane] | – | – | – | – | – | – | – | – | – | – | –
3 | – | released gradually with time | – | C=C1CC1B(C1CC1=C)C1CC1=C (centres unmarked) [complex 3, tris-(2-methylene-cyclopropyl)-borane] | – | more consistent in releasing 1-MCP over time | – | – | – | – | – | – | – | – | –
4 | – | released gradually with time | 1 | C=C1CC1B(c1ccccc1)c1ccccc1 (centres unmarked) [complex 4, diphenyl-(2-methylene-cyclopropyl)-borane] | relatively low in first 24 hours | – | – | – | – | – | – | – | remained in the middle | slower increase than the non-treated tomatoes | 3.10
